Experimental data reported in patent publication US8273754B2, “Substituted 1H-pyrazolo[3,4-D]pyrimidine-6-amine compounds” (ArQule, Inc., priority 2008, dated 2012).
Like-named read-outs stand apart in the source and are kept apart here.

System: cancer cells
Test: MTS cell growth inhibition assay (72 hours)
Type: cell-based
Procedure, shortened: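 Growth inhibition read as formazan absorbance at 492 nm after 4 h MTS/PMS, following 72 h compound exposure at 37 °C in 1% FBS DMEM (cells pre-seeded 18 h). IC50 = 50% absorbance reduction; inhibition graded in bands.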

[1] = Homo sapiens, DLD-1, 72 h, DLD-1 cells, read-out: DLD-1 MTS 72 hr at 10 μM
[2] = Homo sapiens, KATO III, 72 h, KATO III cells, read-out: KATO III MTS 72 hr at 10 μM
[3] = Homo sapiens, MDA-MB-231, 72 h, MDA-MB-231 cells, read-out: MDA-MB-231 MTS 72 hr at 10 μM
[4] = Homo sapiens, NCI-H1299, 72 h, NCI-H1299 cells, read-out: NCI-H1299 MTS 72 hr at 10 μM
[5] = PaCa-2, 72 h, PACA-2 cells, read-out: PACA-2 MTS 72 hr at 10 μM

Nc1nc(NC2Cc3ccccc3N(S(=O)(=O)c3cccc(NC(=O)Nc4ccc(C(F)(F)F)cc4)c3)C2)c2cn[nH]c2n1 (stereo not drawn) [Compound 209, 1-[3-({3-[(6-amino-1H-pyrazolo[3,4-d]pyrimidin-4-yl)amino]-3,4-dihydroquinolin-1(2H)-yl}sulfonyl)phenyl]-3-[4-(trifluoromethyl)phenyl]urea]
inhibition at 10 µM [1]: > 79%
inhibition at 10 µM [2]: > 79%
inhibition at 10 µM [3]: > 79%
inhibition at 10 µM [4]: > 79%
inhibition at 10 µM [5]: > 79%

Nc1nc(NC2Cc3ccccc3N(C(=O)c3cccs3)C2)c2cn[nH]c2n1 (stereo not drawn) [Compound 79, (3-(6-amino-1H-pyrazolo[3,4-d]pyrimidin-4-ylamino)-3,4-dihydroquinolin-1(2H)-yl)(thiophen-2-yl)methanone]
inhibition at 10 µM [1]: > 79%
inhibition at 10 µM [2]: > 79%
inhibition at 10 µM [3]: 50 to 79%
inhibition at 10 µM [4]: < 50%
inhibition at 10 µM [5]: > 79%

N#Cc1ccc(S(=O)(=O)N2CC(Nc3nc(N)nc4[nH]ncc34)Cc3ccccc32)cc1 (stereo not drawn) [Compound 30, 4-(3-(6-amino-1H-pyrazolo[3,4-d]pyrimidin-4-ylamino)-3,4-dihydroquinolin-1(2H)-ylsulfonyl)benzonitrile]
inhibition at 10 µM [1]: < 50%
inhibition at 10 µM [2]: < 50%
inhibition at 10 µM [3]: < 50%
inhibition at 10 µM [4]: < 50%
inhibition at 10 µM [5]: < 50%

Cc1cccc(C(=O)N2CC(Nc3nc(N)nc4[nH]ncc34)Cc3ccccc32)c1 (stereo not drawn) [Compound 82, (3-(6-amino-1H-pyrazolo[3,4-d]pyrimidin-4-ylamino)-3,4-dihydroquinolin-1(2H)-yl)(m-tolyl)methanone]
inhibition at 10 µM [1]: < 50%
inhibition at 10 µM [2]: < 50%
inhibition at 10 µM [3]: < 50%
inhibition at 10 µM [4]: < 50%
inhibition at 10 µM [5]: < 50%

COC(=O)CCc1ccc(S(=O)(=O)N2CC(Nc3nc(N)nc4[nH]ncc34)Cc3ccccc32)cc1 (stereo not drawn) [Compound 73, methyl 3-(4-(3-(6-amino-1H-pyrazolo[3,4-d]pyrimidin-4-ylamino)-3,4-dihydroquinolin-1(2H)-ylsulfonyl)phenyl)propanoate]
inhibition at 10 µM [1]: < 50%
inhibition at 10 µM [2]: < 50%
inhibition at 10 µM [3]: < 50%
inhibition at 10 µM [4]: < 50%
inhibition at 10 µM [5]: < 50%

Nc1nc(NC2Cc3ccccc3N(Cc3ccccc3-c3ccc(F)cc3)C2)c2cn[nH]c2n1 (stereo not drawn) [Compound 159, N4-{1-[(4′-fluorobiphenyl-2-yl)methyl]-1,2,3,4-tetrahydroquinolin-3-yl}-1H-pyrazolo[3,4-d]pyrimidine-4,6-diamine]
inhibition at 10 µM [1]: < 50%
inhibition at 10 µM [2]: < 50%
inhibition at 10 µM [3]: < 50%
inhibition at 10 µM [4]: < 50%
inhibition at 10 µM [5]: < 50%

Nc1nc(NC2CCN(S(=O)(=O)c3ccc(F)c(F)c3)c3ccccc3C2)c2cn[nH]c2n1 (stereo not drawn) [Compound 182, N4-{1-[(3,4-difluorophenyl)sulfonyl]-2,3,4,5-tetrahydro-1H-1-benzazepin-4-yl}-1H-pyrazolo[3,4-d]pyrimidine-4,6-diamine]
inhibition at 10 µM [1]: < 50%
inhibition at 10 µM [2]: < 50%
inhibition at 10 µM [3]: < 50%
inhibition at 10 µM [4]: < 50%
inhibition at 10 µM [5]: < 50%

Cc1ccccc1NC(=O)Nc1cccc(S(=O)(=O)N2CC(Nc3nc(N)nc4[nH]ncc34)Cc3ccccc32)c1 (stereo not drawn) [Compound 213, 1-[3-({3-[(6-amino-1H-pyrazolo[3,4-d]pyrimidin-4-yl)amino]-3,4-dihydroquinolin-1(2H)-yl}sulfonyl)phenyl]-3-(2-methylphenyl)urea]
inhibition at 10 µM [1]: < 50%
inhibition at 10 µM [2]: > 79%
inhibition at 10 µM [3]: < 50%
inhibition at 10 µM [4]: < 50%
inhibition at 10 µM [5]: 50 to 79%

Cc1ccc(Oc2ccccc2CN2CC(Nc3nc(N)nc4[nH]ncc34)Cc3ccccc32)cc1 (stereo not drawn) [Compound 158, N4-{1-[2-(4-methylphenoxy)benzyl]-1,2,3,4-tetrahydroquinolin-3-yl}-1H-pyrazolo[3,4-d]pyrimidine-4,6-diamine]
inhibition at 10 µM [1]: > 79%
inhibition at 10 µM [2]: > 79%
inhibition at 10 µM [3]: 50 to 79%
inhibition at 10 µM [4]: < 50%
inhibition at 10 µM [5]: > 79%

Nc1nc(NC2Cc3ccccc3N(S(=O)(=O)Cc3ccccc3)C2)c2cn[nH]c2n1 (stereo not drawn) [Compound 21, N4-(1-(benzylsulfonyl)-1,2,3,4-tetrahydroquinolin-3-yl)-1H-pyrazolo[3,4-d]pyrimidine-4,6-diamine]
inhibition at 10 µM [1]: > 79%
inhibition at 10 µM [2]: > 79%
inhibition at 10 µM [3]: 50 to 79%
inhibition at 10 µM [4]: < 50%
inhibition at 10 µM [5]: > 79%

Nc1nc(NC2Cc3ccccc3N(S(=O)(=O)c3cccc(NC(=O)Nc4ccc5c(c4)Cc4ccccc4-5)c3)C2)c2cn[nH]c2n1 (stereo not drawn) [Compound 202, 1-[3-({3-[(6-amino-1H-pyrazolo[3,4-d]pyrimidin-4-yl)amino]-3,4-dihydroquinolin-1(2H)-yl}sulfonyl)phenyl]-3-(9H-fluoren-2-yl)urea]
inhibition at 10 µM [1]: > 79%
inhibition at 10 µM [2]: > 79%
inhibition at 10 µM [3]: > 79%
inhibition at 10 µM [4]: 50 to 79%
inhibition at 10 µM [5]: > 79%

Cc1ccc(CN2CC(Nc3nc(N)nc4[nH]ncc34)Cc3ccccc32)c(C)c1 (stereo not drawn) [Compound 134, N4-[1-(2,4-dimethylbenzyl)-1,2,3,4-tetrahydroquinolin-3-yl]-1H-pyrazolo[3,4-d]pyrimidine-4,6-diamine]
inhibition at 10 µM [1]: > 79%
inhibition at 10 µM [2]: > 79%
inhibition at 10 µM [3]: < 50%
inhibition at 10 µM [4]: < 50%
inhibition at 10 µM [5]: 50 to 79%

Nc1nc(NC2Cc3ccccc3N(S(=O)(=O)c3cccc(NC(=O)Nc4c(Cl)cccc4Cl)c3)C2)c2cn[nH]c2n1 (stereo not drawn) [Compound 208, 1-[3-({3-[(6-amino-1H-pyrazolo[3,4-d]pyrimidin-4-yl)amino]-3,4-dihydroquinolin-1(2H)-yl}sulfonyl)phenyl]-3-(2,6-dichlorophenyl)urea]
inhibition at 10 µM [1]: < 50%
inhibition at 10 µM [2]: < 50%
inhibition at 10 µM [3]: < 50%
inhibition at 10 µM [4]: < 50%
inhibition at 10 µM [5]: 50 to 79%

Nc1nc(NC2Cc3ccccc3N(C(=O)c3c(F)cccc3Cl)C2)c2cn[nH]c2n1 (stereo not drawn) [Compound 99, (3-(6-amino-1H-pyrazolo[3,4-d]pyrimidin-4-ylamino)-3,4-dihydroquinolin-1(2H)-yl)(2-chloro-6-fluorophenyl)methanone]
inhibition at 10 µM [1]: < 50%
inhibition at 10 µM [2]: < 50%
inhibition at 10 µM [3]: < 50%
inhibition at 10 µM [4]: < 50%
inhibition at 10 µM [5]: < 50%

Nc1nc(NC2Cc3ccccc3N(S(=O)(=O)c3ccc(NC(=O)Nc4ccc5ccccc5c4)cc3)C2)c2cn[nH]c2n1 (stereo not drawn) [Compound 189, 1-[4-({3-[(6-amino-1H-pyrazolo[3,4-d]pyrimidin-4-yl)amino]-3,4-dihydroquinolin-1(2H)-yl}sulfonyl)phenyl]-3-(2-naphthyl)urea]
inhibition at 10 µM [1]: > 79%
inhibition at 10 µM [2]: > 79%
inhibition at 10 µM [3]: > 79%
inhibition at 10 µM [4]: > 79%
inhibition at 10 µM [5]: > 79%

Nc1nc(NC2Cc3ccccc3N(S(=O)(=O)c3cccc(Cl)c3F)C2)c2cn[nH]c2n1 (stereo not drawn) [Compound 78, N4-(1-(3-chloro-2-fluorophenylsulfonyl)-1,2,3,4-tetrahydroquinolin-3-yl)-1H-pyrazolo[3,4-d]pyrimidine-4,6-diamine]
inhibition at 10 µM [1]: < 50%
inhibition at 10 µM [2]: < 50%
inhibition at 10 µM [3]: < 50%
inhibition at 10 µM [4]: < 50%
inhibition at 10 µM [5]: < 50%

Nc1nc(NC2Cc3ccccc3N(C(=O)Nc3ccc(F)c(F)c3F)C2)c2cn[nH]c2n1 (stereo not drawn) [Compound 120, 3-(6-amino-1H-pyrazolo[3,4-d]pyrimidin-4-ylamino)-N-(2,3,4-trifluorophenyl)-3,4-dihydroquinoline-1(2H)-carboxamide]
inhibition at 10 µM [1]: > 79%
inhibition at 10 µM [2]: > 79%
inhibition at 10 µM [3]: 50 to 79%
inhibition at 10 µM [4]: < 50%
inhibition at 10 µM [5]: > 79%

Nc1nc(NC2Cc3ccccc3N(S(=O)(=O)c3ccc(Oc4ccccc4)nc3)C2)c2cn[nH]c2n1 (stereo not drawn) [Compound 64, N4-(1-(6-phenoxypyridin-3-ylsulfonyl)-1,2,3,4-tetrahydroquinolin-3-yl)-1H-pyrazolo[3,4-d]pyrimidine-4,6-diamine]
inhibition at 10 µM [1]: < 50%
inhibition at 10 µM [2]: < 50%
inhibition at 10 µM [3]: < 50%
inhibition at 10 µM [4]: < 50%
inhibition at 10 µM [5]: < 50%

Nc1nc(NC2Cc3ccccc3N(C(=O)C3CC3)C2)c2cn[nH]c2n1 (stereo not drawn) [Compound 80, (3-(6-amino-1H-pyrazolo[3,4-d]pyrimidin-4-ylamino)-3,4-dihydroquinolin-1(2H)-yl)(cyclopropyl)methanone]
inhibition at 10 µM [1]: < 50%
inhibition at 10 µM [2]: < 50%
inhibition at 10 µM [3]: < 50%
inhibition at 10 µM [4]: < 50%
inhibition at 10 µM [5]: < 50%

CS(=O)(=O)c1ccc(CN2CC(Nc3nc(N)nc4[nH]ncc34)Cc3ccccc32)cc1 (stereo not drawn) [Compound 139, N4-{1-[4-(methylsulfonyl)benzyl]-1,2,3,4-tetrahydroquinolin-3-yl}-1H-pyrazolo[3,4-d]pyrimidine-4,6-diamine]
inhibition at 10 µM [1]: > 79%
inhibition at 10 µM [2]: > 79%
inhibition at 10 µM [3]: < 50%
inhibition at 10 µM [4]: < 50%
inhibition at 10 µM [5]: 50 to 79%

Nc1nc(NC2Cc3ccccc3N(S(=O)(=O)c3cccc(NC(=O)Nc4ccc5ccccc5c4)c3)C2)c2cn[nH]c2n1 (stereo not drawn) [Compound 212, 1-[3-({3-[(6-amino-1H-pyrazolo[3,4-d]pyrimidin-4-yl)amino]-3,4-dihydroquinolin-1(2H)-yl}sulfonyl)phenyl]-3-(2-naphthyl)urea]
inhibition at 10 µM [1]: > 79%
inhibition at 10 µM [2]: > 79%
inhibition at 10 µM [3]: > 79%
inhibition at 10 µM [4]: > 79%
inhibition at 10 µM [5]: > 79%
